Test results: article PMC11476552, “Synthesis and Preliminary Studies for In Vitro Biological Activity of Two New Water-Soluble Bis(thio)carbohydrazones and Their Copper(II) and Zinc(II) Complexes” (International Journal of Molecular Sciences, 2024)

Columns and labels:
Type in all cases: physicochemical
[1] = Proton dissociation constants by pH potentiometry; conditions: aqueous solution, T = 298.2 K, I = 0.1 M KCl
Text: (§1) Between pH = 3.98 and 6.00, the solutions were colourless with absorption maxima at 237 and 320 nm. From pH = 6.49, the solution was pale green, and the colour became more intense until pH = 10.00; the colour change was accompanied by the appearance of bands at 253 and 393 nm, with a shoulder at 445 nm. […] This value is similar to that reported for the deprotonation of the phenolic moiety of sodium 5-sulfonate-salicylaldehyde thiosemicarbazones. The values of pKa1 and pKa2, associated with the proton dissociation of the sulfonic groups, are expected to have much lower values (below 3) and could not be determined from these experiments. Potentiometric titrations were performed in an attempt to determine the value of the pKa of the hydrazidic NH protons (pKa5 and pKa6) and, possibly, those of the protonated sulfonate groups. Effectively, potentiometric data allowed us to determine the pKa5 value, along with pKa3 and pKa4 (Table 2). The values of pKa3 and pKa4 obtained by potentiometry are consistent with those obtained by spectrophotometric titrations.
(§2) Similarly, the proton dissociation constants of bis-CH were studied spectrophotometrically in aqueous solution between pH = 3.98 and 10.00 (Figure 1B). […] The spectrophotometric data were processed by means of HypSpec2014 software, leading to pKa3 = 7.34(1) and pKa4 = 8.58(1), which were assigned to the deprotonation of the two phenolic OH groups (Table 2). As for bis-TCH, the single-site pKa value of the phenolic groups can be estimated as the average pKa (7.96). Additionally, to complete the analysis, we carried out potentiometric titrations of bis-CH starting from a very acidic pH. […] Importantly, no dissociation of the hydrazidic NH groups was observed, a behaviour consistent with that reported in the literature.
Glass-electrode potentiometric titrations of bis-TCH and bis-CH were carried out in aqueous solution at T = 298.2 ± 0.1 K and I = 0.1 M (KCl) under a stream of N2, using 1.5 mL samples. The potentiometric titrations were carried out using an automatic Metrohm OMNIS titrator provided with a Metrohm semi-micro glass electrode. The system was controlled by a PC to monitor the attainment of the equilibrium through pH measurements vs. time and the addition of titrant aliquots. The Metrohm combined glass electrode was calibrated in terms of [H^+] (hereafter, pH = −log[H^+]) by titrating HCl solutions with KOH solutions previously standardized against potassium hydrogen phthalate. […] The protonation constants of Na2H4L^1·5.5 H2O and Na2H4L^2·5 H2O were determined by alkalimetric titration of 3 samples (3.0–4.5 mM). All samples were prepared by weight of the pure solids and dissolved in freshly prepared, N2-fluxed, double-distilled water. Potentiometric data treatment was carried out using Hyperquad2013 software. Distribution diagrams were obtained using Hyss2009 software.

[2] = Proton dissociation constants by UV-visible spectrophotometry; conditions: aqueous buffer solutions
Text: The proton dissociation constants of Na2H4L^1·5.5 H2O (bis-TCH) were studied by registering the UV–visible spectra in aqueous solution between pH 3.98 and 10.00 (Figure 1A).
as §1, §2
The UV–visible spectra were collected using a Thermo Scientific Evolution 260 Bio spectrophotometer equipped with a Peltier temperature controller. Aqueous buffer stock solutions (50 mM) were prepared as follows: acetate buffer solutions (pH = 3.98, 4.62, and 5.00) were prepared by mixing appropriate volumes of AcOH 50 mM and AcONa·3H2O 50 mM solutions. MES (pH = 5.51, 6.00, and 6.49), HEPES (pH = 7.00, 7.48, and 8.01) and CHES (pH = 8.62, 9.01, 9.51, and 10.00) buffer solutions were obtained by suspending appropriate amounts of solid MES/HEPES/CHES in water, adding aqueous NaOH 100 mM until the desired pH was reached. The pH was measured using a Crison Basic 20 pH meter connected with a Hamilton glass electrode. Calibration of the glass electrode was carried out daily. All solutions were prepared using double-distilled water. For all the solutions, the ionic strength was 0.1 M NaCl.
Samples used for the study of protonation equilibria of the ligands were prepared as follows. […] For each solution, the absorption spectrum was collected in the 220–600 nm range at 298.2 K. The spectral data collection was carried out immediately after the preparation of the samples and repeated after 3 and 10 min for all the samples at different pH values to check the stability of the ligand. […] The complex formation equilibria at pH 2.5 or 7.4 of bis-TCH and bis-CH with Cu(II) and Zn(II) ions were studied by direct spectrophotometric titrations of solutions of the ligands with the metal ions, and the samples were prepared as follows. Appropriate aliquots of the stock solutions of the ligands were diluted in a quartz cuvette of 1 cm path length using HEPES buffer (pH 7.4) or by adding HCl aqueous solution (pH 2.5) to obtain ca. 17 µM ligand solutions in a total volume of 2.6 mL. […]

[3] = Solubility of the ligands and complexes in water; conditions: for solubility: r.t.
Text: Elemental (see experimental section) and TGA (Figure S5) analyses confirmed the formulae Na2H4L^1∙5.5H2O (bis-TCH) and Na2H4L^2∙5H2O (bis-CH).

[4] = UV-visible spectrophotometry, aqueous solution, T = 298.2 K, phenolic group, read-out: pKa3
[5] = UV-visible spectrophotometry, aqueous solution, T = 298.2 K, phenolic group, read-out: pKa4
[6] = average of spectrophotometric pKa3 and pKa4, read-out: single-site pKa value of the phenolic groups (average pKa)

Row | Structure (SMILES) | pKa ([1]; read-out: pKa3) | pKa ([1]; read-out: pKa4) | pKa ([1]; second sulfonic group, read-out: pKa2) | pKa [2, 4] | pKa [2, 5] | pKa [2, 6] | solubility in water (in words) [3] | solubility [3] [mg/mL] | pKa ([1]; hydrazidic NH, read-out: pKa5)
1 | COc1cc(S(=O)(=O)[O-])cc(/C=N/NC(=O)N/N=C/c2cc(S(=O)(=O)[O-])cc(OC)c2O)c1O.[Na+].[Na+] [bis-CH, Bis-(sodium 3-methoxy-5-sulfonate-salicylaldehyde)-carbohydrazone] | 7.77 | 8.45 | 1.7 | 7.34 | 8.58 | 7.96 | very soluble in water | ~23 | –
2 | COc1cc(S(=O)(=O)[O-])cc(/C=N/NC(=S)N/N=C/c2cc(S(=O)(=O)[O-])cc(OC)c2O)c1O.[Na+].[Na+] [bis-TCH, Bis-(sodium 3-methoxy-5-sulfonate-salicylaldehyde)-thiocarbohydrazone] | 7.08 | 8.54 | – | 6.78 | 8.77 | 7.78 | very soluble in water | ~10 | 11.3
